Assay results published in paper PMC11224111, “Optimizing the pharmacokinetics of an ^211At-labeled RGD peptide with an albumin-binding moiety via the administration of an albumin-binding inhibitor” (European Journal of Nuclear Medicine and Molecular Imaging, 2024).
Read-outs that look alike come from different tables or passages of the source. Marks after values point to notes of the source that are not given here.

Key:
[1] = Biodistribution of [^211At]1 and [^125I]2 in normal mice with ibuprofen or IPBA as albumin-binding inhibitor; conditions: inhibitor at 1 h postinjection, 4 h postinjection of radiotracer
Experimental: To evaluate the effects of albumin-binding inhibitors in normal mice, [^211At]1 (37 kBq) and [^125I]2 (37 kBq) were intravenously coadministered. […] The total blood albumin (1.1 µmol) in normal mice was calculated from the albumin concentration (3.0 g/dL ≈ 455 µM) in blood, which was informed from Japan SLC, Inc., total blood volume (2.5 mL) as 8% of body weight, and the molecular weight of albumin as 66,000 g/mol. […]
Table S1. Biodistribution of radioactivity 4 h after administration of [^211At]1 and [^125I]2 in normal mice.

[2] = Biodistribution of [^125I]2 and [^67Ga]3 in normal mice with IPBA; type: in vivo; conditions: for tissue uptake at 4 h / tissue uptake dose at 4 h: male, ddY, iv, total radioactivity
Experimental: To evaluate the effects of inhibitors in normal mice, [^125I]2 (37 kBq) and [^67Ga]3 (37 kBq) were intravenously coadministered into 6 weeks male ddY mice (29-36 g, Japan SLC, Inc., Hamamatsu, Japan). At 1 h postinjection of radiotracers, sodium 4-(4-iodophenyl)butanoate (IPBA) at 2 (680 µg, 2.2 µmol) or 5 (1.7 mg, 5.5 µmol) molar equivalent of blood albumin was administered. Mice were sacrificed at 4 h post-injection of radiotracers.
Table S2. […] IPBA as an inhibitor was administered at 1 h postinjection of [^125I]2 and [^67Ga]3.

[3] = cited from earlier work
[4] = tested on: U-87 MG tumor-bearing mice; set-up: method as in PMID 37819452; conditions: 24-h postinjection, without IPBA; cited from earlier work
[5] = normal mice, 4 h after administration of [^125I]2 and [^67Ga]3, IPBA 2 eq at 1 h postinjection
[6] = normal mice, 4 h after administration of [^125I]2 and [^67Ga]3, IPBA 5 eq at 1 h postinjection
[7] = normal mice, 4 h after administration, without IPBA

O=C([O-])CCCc1ccc(I)cc1.[Na+] [IPBA, sodium 4-(4-iodophenyl)butanoate, reference compound]
Effect of inhibitor on blood radioactivity of [^211At]1 [1]: decreased in a dose-dependent manner

N=C(N)NCCC[C@@H]1NC(=O)[C@H](CCCCNC(=O)[C@H](CCCCN)NC(=O)CN2CCN(CC(=O)O)CCN(CC(=O)O)CCN(CC(=O)O)CC2)NC(=O)[C@@H](Cc2ccccc2)NC(=O)[C@H](CC(=O)O)NC(=O)CNC1=O [[^67Ga]3, [^67Ga]Ga-DOTA-K-c(RGDfK), metal not drawn]
tissue uptake at 4 h ([2]; mouse, heart, normal mice, 4 h after administration of [^125I]2 and [^67Ga]3, IPBA 5 eq at 1 h postinjection, read-out: Radioactivity, Heart): 0.29 %ID/g | tissue uptake at 4 h ([2]; mouse, in vivo, Radioactivity, L. intestine): 3.07 %ID/g | tissue uptake at 4 h ([2]; mouse, in vivo, Radioactivity, S. intestine): 1.05 %ID/g | tissue uptake at 4 h ([2]; mouse, kidney, normal mice, 4 h after administration of [^125I]2 and [^67Ga]3, IPBA 5 eq at 1 h postinjection, read-out: Radioactivity, Kidney): 8.04 %ID/g | tissue uptake at 4 h ([2]; mouse, liver, normal mice, 4 h after administration of [^125I]2 and [^67Ga]3, IPBA 5 eq at 1 h postinjection, read-out: Radioactivity, Liver): 1.54 %ID/g | tissue uptake dose at 4 h ([2]; mouse, neck, normal mice, 4 h after administration of [^125I]2 and [^67Ga]3, IPBA 2 eq at 1 h postinjection, read-out: Radioactivity, Neck): 0.01 %ID | tissue uptake dose at 4 h ([2]; mouse, neck, normal mice, 4 h after administration of [^125I]2 and [^67Ga]3, IPBA 5 eq at 1 h postinjection, read-out: Radioactivity, Neck): 0.01 %ID | tissue uptake dose at 4 h ([2]; mouse, stomach, normal mice, 4 h after administration of [^125I]2 and [^67Ga]3, IPBA 2 eq at 1 h postinjection, read-out: Radioactivity, Stomach): 0.48 %ID | tissue uptake dose at 4 h ([2]; mouse, stomach, normal mice, 4 h after administration of [^125I]2 and [^67Ga]3, IPBA 5 eq at 1 h postinjection, read-out: Radioactivity, Stomach): 0.59 %ID | Radioactivity, L. intestine ([2]; mouse, in vivo): 4.88 (1.50) ^a % injected activity per gram | Radioactivity, S. intestine ([2]; mouse, in vivo): 1.76 (0.40) ^*,^ b % injected activity per gram | Radioactivity, Blood [2, 5]: 0.03 (0.01) ^***,^ a % injected activity per gram | Radioactivity, Bone [2, 5]: 0.55 (0.08) ^**,^ a % injected activity per gram | Radioactivity, Brain [2, 5]: 0.04 (0.01) ^** % injected activity per gram | Radioactivity, Heart [2, 5]: 0.23 (0.03) ^***,^ a % injected activity per gram | Radioactivity, Kidney [2, 5]: 6.67 (1.04) ^* % injected activity per gram | Radioactivity, Liver [2, 5]: 1.18 (0.14) ^*** % injected activity per gram | Radioactivity, Lung [2, 5]: 0.49 (0.05) ^***,^ a % injected activity per gram | Radioactivity, Muscle [2, 5]: 0.16 (0.02) ^***,^ a % injected activity per gram | Radioactivity, Pancreas [2, 5]: 0.33 (0.01) ^*** % injected activity per gram | Radioactivity, Spleen [2, 5]: 0.64 (0.16) ^*** % injected activity per gram | Radioactivity, Blood [2, 6]: 0.03 (0.00) ^*,^ a % injected activity per gram | Radioactivity, Bone [2, 6]: 0.70 (0.12) ^** % injected activity per gram | Radioactivity, Brain [2, 6]: 0.05 (0.02) ^** % injected activity per gram | Radioactivity, Lung [2, 6]: 0.55 (0.11) ^*,^ a % injected activity per gram | Radioactivity, Muscle [2, 6]: 0.23 (0.04) ^*,^ b % injected activity per gram | Radioactivity, Pancreas [2, 6]: 0.47 (0.13) ^** % injected activity per gram | Radioactivity, Spleen [2, 6]: 0.90 (0.28) ^* % injected activity per gram | Change of biodistribution by IPBA administration ([2]; normal mice, IPBA 2 or 5 eq at 1 h postinjection): did not change biodistribution | Radioactivity, L. intestine ([3]; mouse, in vivo): 1.88 (0.65) % injected activity per gram | Radioactivity, S. intestine ([3]; mouse, in vivo): 1.16 (0.15) ^* % injected activity per gram | Radioactivity, Blood [3, 7]: 0.09 (0.05) ^*** % injected activity per gram | Radioactivity, Bone [3, 7]: 0.83 (0.05) ^* % injected activity per gram | Radioactivity, Brain [3, 7]: 0.05 (0.00) ^*** % injected activity per gram | Radioactivity, Heart [3, 7]: 0.26 (0.04) ^*** % injected activity per gram | Radioactivity, Kidney [3, 7]: 6.61 (0.81) ^* % injected activity per gram | Radioactivity, Liver [3, 7]: 1.15 (0.07) ^** % injected activity per gram | Radioactivity, Lung [3, 7]: 0.50 (0.04) ^*** % injected activity per gram | Radioactivity, Muscle [3, 7]: 0.19 (0.02)^ *** % injected activity per gram | Radioactivity, Neck [3, 7]: 0.02 (0.00)^ ** % injected activity | Radioactivity, Pancreas [3, 7]: 0.40 (0.03)^ *** % injected activity per gram | Radioactivity, Spleen [3, 7]: 0.64 (0.12) ^*** % injected activity per gram | Radioactivity, Stomach [3, 7]: 0.44 (0.04)^ * % injected activity | Tumor accumulation [4]: 1.84 ± 0.09 %IA/g
